Measured values taken from article PMC11431997, “Baicalin Inhibits FIPV Infection In Vitro by Modulating the PI3K-AKT Pathway and Apoptosis Pathway” (International Journal of Molecular Sciences, 2024).
Values after ≈ are worked out from the molar mass of the structure shown. Read-outs that look alike come from different tables or passages of the source.

Key:
CRFK cells = test: Cytotoxicity assay of the compounds (CCK-8); type: cell-based, feline
Procedure: (§1) CRFK cells were seeded in 96-well cell culture plates at a density of 1 × 10^4 cells/well and incubated at 37 °C with 5% CO2 until the cell density reached more than 90%. Then, the medium was discarded, and the cells were washed twice with PBS. The compound to be tested was diluted in 10 successive gradients with MM at a 2-fold multiplicity (at the same time, there was a cell control group of 100 μL of MM, and 3 replicate wells were set for each concentration and group) and incubated at 37 °C with 5% CO2 for 72 h; then, the liquid in the plate was discarded and washed twice with PBS. Afterwards, the cytopathic ratios (CRs) of the compounds to cells were calculated according to the instructions of the Cell Counting Kit-8 (MCE, NJ, USA), and the CC50s of the compounds and the MNTCs at which the compounds could survive more than 90% of the cells were calculated using GraphPad Prism 10. In subsequent experiments, the final concentrations of the compounds after addition were the MNTCs of the compounds unless otherwise specified.

[1] = Cytotoxicity assay of the compounds (CCK-8); type: cell-based, feline; conditions: cat
Procedure: as §1

FIPV (BJ-01) = test: Inhibitory effects of compounds on FIPV-infected cells (compound and FIPV added simultaneously, CCK-8); type: cell-based, feline infectious peritonitis virus; conditions: 72 h; for inhibition of FIPV infection (MIR): compound at MNTC added with 100 TCID50 FIPV to CRFK cells
Procedure: According to previous methods, CRFK cells were seeded in 96-well cell culture plates at a density of 1 × 10^4 cells/well and cultured at 37 °C in 5% CO2 until the cell density was greater than 90%. After the cells were washed twice with PBS, 50 μL of test compound and 50 μL of FIPV were added to each well simultaneously (at the same time, a cell control group with only 100 μL of MM and a viral control group with only 100 μL of FIPV were added). There were 3 replicate wells for each compound and group. After 72 h of incubation at 37 °C and 5% CO2, the liquid in the plate was discarded, and the cells were washed twice with PBS. The MIR of the compounds to the virus was calculated according to the instructions of the Cell Counting Kit-8. Afterwards, the compounds with MIR > 50% were diluted to 8 concentrations with MM, and the above process was repeated. Then, the EC50 values of the compounds were calculated with GraphPad Prism 10.

[2] = CRFK cells, 72 h, CCK-8, concentration at which more than 90% of the cells survive
[3] = CRFK cells, 72 h, CCK-8, read-out: CC50

**Q.** What does the source list for `O=C(O)/C=C/c1ccc(O)c(O)c1` [Caffeic acid]?
**A.** MNTC (maximum noncytotoxic concentration) (CRFK cells; cat, 72 h): 53.43 µg/mL; CC50 at 72 h [1]: 58.8 µg/mL (≈ 326 µM)

**Q.** Which “MNTC (maximum noncytotoxic concentration)” value (CRFK cells; cat, 72 h) does the source give for `O=C(/C=C/c1ccc(O)c(O)c1)O[C@@H]1C[C@](O)(C(=O)O)C[C@@H](O)[C@H]1O` [Chlorogenic acid] here?
**A.** 1605 µg/mL

**Q.** And the CC50 at 72 h [1]?
**A.** 2170 µg/mL (≈ 6120 µM)

**Q.** With `C[S+](C)[O-]` [DMSO] as the compound, how does the MNTC (CRFK cells) read?
**A.** 0.83%

**Q.** Which “inhibition of FIPV infection (MIR)” value (FIPV (BJ-01)) does the source give for `Cc1cccc2c3c(ccc12)C1=C(C(=O)C3=O)[C@@H](C)CO1` [Dihydrotanshinone I] here?
**A.** less than 20%

**Q.** What about the “MNTC (maximum noncytotoxic concentration)” value (CRFK cells; cat, 72 h) of the same compound?
**A.** 246.4 µg/mL

**Q.** What about the CC50 at 72 h [1] of the same compound?
**A.** 426 µg/mL (≈ 1530 µM)

**Q.** With `N#C[C@@]1(c2ccc3c(N)ncnn23)O[C@H](CO)[C@@H](O)[C@H]1O` [GS-441524, reference compound] as the compound, how does the EC50 (FIPV (BJ-01); Alphacoronavirus 1, FIPV in CRFK cells, gradient dilution, CCK-8) read?
**A.** 0.205 µg/mL (≈ 0.704 µM)

**Q.** What about the “inhibition of FIPV infection (MIR)” value (FIPV (BJ-01)) of the same compound?
**A.** significantly more than the other compounds tested

**Q.** What about the “MNTC (maximum noncytotoxic concentration)” value (CRFK cells; [2]) of the same compound?
**A.** 36.20 µg/mL

**Q.** And the CC50 at 72 h [1, 3]?
**A.** 70.3 µg/mL (≈ 241 µM)

**Q.** With `CC1(C)[C@@H](O[C@H]2O[C@H](C(=O)O)[C@@H](O)[C@H](O)[C@H]2O[C@@H]2O[C@H](C(=O)O)[C@@H](O)[C@H](O)[C@H]2O)CC[C@]2(C)[C@H]3C(=O)C=C4[C@@H]5C[C@@](C)(C(=O)O)CC[C@]5(C)CC[C@@]4(C)[C@]3(C)CC[C@@H]12` [Glycyrrhizic acid] as the compound, how does the “MNTC (maximum noncytotoxic concentration)” value (CRFK cells; [2]) read?
**A.** 1412 µg/mL

**Q.** And the CC50 at 72 h [1, 3]?
**A.** 3320 µg/mL (≈ 4040 µM)

**Q.** Which results are given for `Cc1nc(C)c(C)nc1C.Cl` [Ligustrazine hydrochloride]?
**A.** inhibition of FIPV infection (MIR) (FIPV (BJ-01)): less than 20%; CC50 (CRFK cells; CRFK cells, 72 h, CCK-8): 2709 µg/mL; MNTC (maximum noncytotoxic concentration) (CRFK cells; [2]): 969.6 µg/mL

**Q.** For `O=C1CCC[C@@H]2[C@H]3CCCN4CCC[C@@H](CN12)[C@@H]34` [Matrine], which “inhibition of FIPV infection (MIR)” value (FIPV (BJ-01)) is on record?
**A.** less than 20%

**Q.** And the “MNTC (maximum noncytotoxic concentration)” value (CRFK cells; [2])?
**A.** 699.8 µg/mL

**Q.** What about the CC50 at 72 h [1, 3] of the same compound?
**A.** 1110 µg/mL (≈ 4470 µM)

**Q.** Which “inhibition of FIPV infection (MIR)” value (FIPV (BJ-01)) does the source give for `O=c1c(-c2ccc(O)cc2)coc2c([C@@H]3O[C@H](CO)[C@@H](O)[C@H](O)[C@H]3O)c(O)ccc12` [Puerarin] here?
**A.** less than 20%

**Q.** What about the “MNTC (maximum noncytotoxic concentration)” value (CRFK cells; cat, 72 h) of the same compound?
**A.** 83.77 µg/mL

**Q.** What about the CC50 at 72 h [1] of the same compound?
**A.** 209 µg/mL (≈ 501 µM)

**Q.** Which results are given for `Cc1coc2c1C(=O)C(=O)c1c-2ccc2c1CCCC2(C)C` [Tanshinone IIA]?
**A.** inhibition of FIPV infection (MIR) (FIPV (BJ-01)): less than 20%; MNTC (maximum noncytotoxic concentration) (CRFK cells; [2]): 290.9 µg/mL; CC50 at 72 h [1, 3]: 807 µg/mL (≈ 2740 µM)
